According to article PMC8535469, “Insight into the Binding and Hydrolytic Preferences of hNudt16 Based on Nucleotide Diphosphate Substrates” (International Journal of Molecular Sciences, 2021):
Like-named read-outs stand apart in the source and are kept apart here.

How the values were obtained:
wild-type hNudt16 = biological target: T1, wild-type hNudt16 (Homo sapiens, UniProt Q96DE0); assay: Thermal stability of wild-type hNudt16 with ligands, nanoDSF; assay type: binding; conditions: 20 mM MgCl2, same conditions as E76Q
T1 construct: 4xHis (four added histidines); made in house
T1 sequence (Q96DE0 whole entry): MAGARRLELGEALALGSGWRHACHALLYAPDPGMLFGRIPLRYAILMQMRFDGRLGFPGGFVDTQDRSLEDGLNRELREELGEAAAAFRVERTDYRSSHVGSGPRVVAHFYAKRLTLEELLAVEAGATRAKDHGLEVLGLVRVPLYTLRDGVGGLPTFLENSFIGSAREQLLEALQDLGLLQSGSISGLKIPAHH
Experimental: This allow us to conclude that there is no negative effect of the mutation on protein stabilization by studied compounds.
Protein thermal stability in the presence of various ligands was measured using two DSF methods: assays with SYPRO orange dye and dye-free assays. DSF assays with SYPRO orange dye were performed at specific ligand concentrations for each protein–ligand pair. This measurement was performed as described in Section 4.6.1, with a constant MgCl2 concentration of 20 mM and a concentration of the tested ligand maintained at 0.5 mM. DSF dye-free measurements were performed using a Prometheus NT.48 nanoDSF device (NanoTemper Technologies, München, Germany). The composition of the samples was identical to that in the DSF with SYPRO orange dye measurements, without the addition of any dye. The conditions during measurements were as follows: 5 µM protein, 20 mM MgCl2, 10 mM HEPES pH 7.9, 150 mM NaCl, 5% glycerol, 1 mM TCEP, and 0.5 mM ligand. The measurements were performed at a single ligand concentration for all ligands. After 10 min of pre-incubation, the samples were loaded into standard capillaries (NanoTemper Technologies, München, Germany). During the measurement, the samples were heated in a temperature range of 20–95 °C at a rate of 1 °C/min, and the measurements were performed with an excitation power of 30%. All of the collected data measured with using the above two DSF methods were analyzed according to the two-state transition numerical model described previously, using the Marquardt algorithm implemented in the Origin 2019 package (OriginLab, Northampton, MA, USA). We fitted the melting temperatures (Tm) globally for at least three independent experiments (but separately for different DSF methods).

hNudt16E76Q [1] = biological target: T2, hNudt16E76Q (Homo sapiens, UniProt Q96DE0, E76Q); assay: Thermal stability of hNudt16E76Q with ligands, DSF with SYPRO Orange; assay type: binding; conditions: 5 µM hNudt16E76Q, 20 mM MgCl2, 0.5 mM ligand, 4× SYPRO Orange; for ∆Tm, DSF (with SYPRO Orange): relative to apo
T2 construct: 4xHis (four added histidines); made in house; host or cells: E. coli Rosetta 2 (DE3), pET16b
T2 sequence (Q96DE0 whole entry E76Q): as the sequence (Q96DE0 whole entry) above, with E76Q counted along it
Experimental: The protein thermal stability of wild-type hNudt16 and all tested mutants in the presence of increasing Mg^2+ ion concentration was measured using DSF with SYPRO orange dye on CFX RT-PCR (Bio-Rad, Hercules, CA, USA). This method is based on the change in fluorescence of the SYPRO orange dye in an aqueous buffer, which is strongly quenched, while its binding to the exposed hydrophobic regions of thermally unfolded protein results in an increased fluorescence. The optimal concentrations of protein, SYPRO orange dye, and buffer composition, in particular ion content, were determined. The samples were prepared and measured in clear 96-well multiplate PCR plates for RT-PCR (Bio-Rad, Hercules, CA, USA). […] The individual components of the solution were added in equal volumes to each well, with a final sample volume of 25 μL/well. The samples were gently mixed, and the 96-well plate was covered with optically clear PCR sealing tape (Bio-Rad, Hercules, CA, USA) to prevent evaporation. […] The data processing procedure was performed using Bio-Rad CFX Manager (version 1.6.541.1028), and melting point temperatures were calculated as the minimum of the first derivative plot.
(§1) Protein thermal stability in the presence of various ligands was measured using two DSF methods: assays with SYPRO orange dye and dye-free assays. DSF assays with SYPRO orange dye were performed at specific ligand concentrations for each protein–ligand pair. This measurement was performed as described in Section 4.6.1, with a constant MgCl2 concentration of 20 mM and a concentration of the tested ligand maintained at 0.5 mM. DSF dye-free measurements were performed using a Prometheus NT.48 nanoDSF device (NanoTemper Technologies, München, Germany). The composition of the samples was identical to that in the DSF with SYPRO orange dye measurements, without the addition of any dye. […] The measurements were performed at a single ligand concentration for all ligands. After 10 min of pre-incubation, the samples were loaded into standard capillaries (NanoTemper Technologies, München, Germany). […] We fitted the melting temperatures (Tm) globally for at least three independent experiments (but separately for different DSF methods).

hNudt16E76Q [2] = biological target: T2, hNudt16E76Q; assay: Thermal stability of hNudt16E76Q with ligands, dye-free nanoDSF; assay type: binding; conditions: for Tm, nanoDSF (Dye-Free) / ∆Tm, nanoDSF (Dye-Free): 5 µM hNudt16E76Q, 20 mM MgCl2, 0.5 mM ligand; for ∆Tm, nanoDSF (Dye-Free): relative to apo
Experimental: as §1

hNudt16E76Q [3] = biological target: T2, hNudt16E76Q; assay: Hydrolytic properties of E76Q mutant tested by HPLC; assay type: biochemical
Experimental: (§2) The hydrolytic susceptibility of the compounds was studied using HPLC. Before each experiment, 1 mL of buffer solution containing the analyte was incubated at 37 °C for 10 min. The hydrolysis process was initiated by the addition of hNudt16. To analyze the reaction progress, 200-µL aliquots of the reaction mixture were withdrawn and incubated at 96 °C for 5 min to stop the reaction through heat inactivation of the enzyme. The samples were then subjected to an HPLC system (Agilent 1200 series, Agilent Technologies, California, USA) with a reverse-phase Supelcosil LC-18-T column and UV/VIS detector. The substrates and hydrolysis products were eluted at 20 °C with a linear gradient of methanol in 0.1 M KH2PO4 (from 0% to 40%) over 15 min at a flow rate of 1.0 mL/min. Changes in the absorbance at 260 nm were continuously monitored during the analysis. Hydrolysis products were identified by comparing their retention times with those of the reference samples. The extent of decapping, determined as the percentage of the hydrolyzed substrate, was calculated using the area under the chromatographic peak of the respective compounds.

hNudt16E76Q [4] = biological target: T2, hNudt16E76Q; assay: Microscale thermophoresis (MST) binding, two independent binding sites model; conditions: for ΔGdiss1 (for Kd1): calculated as −RTlnKd from MST Kd1; for ΔGdiss2 (for Kd2): calculated as −RTlnKd from MST Kd2
Experimental: Binding constants for protein–ligand pairs were established using the MST method. The hNudt16 E76Q was labeled with RED-tris-NTA 2nd Generation dye (Monolith HIS-tag labeling Kit, NanoTemper Technologies, München, Germany) according to the manufacturer’s instructions. Measurements were carried out in a wide range of ligand concentrations, selected after preliminary tests for each of the ligands. The results obtained were used to determine of binding parameters for a given ligand. Each MST measurement consisted of a series of 16 serial 1:2 dilutions of the ligand, and was performed at a constant dye-labeled protein concentration of 50 nM. After 10 min of pre-incubation, dye-labeled protein–ligand samples were manually loaded into Monolith™ NT.115 Premium Capillaries (NanoTemper Technologies, München, Germany) and analyzed using the Monolith NT.115 (NanoTemper Technologies). […] Analysis was performed using Origin package (OriginLab, Northampton, MA, USA) and dissociation constants were fitted globally for a series of at least six MST pseudo-titration experiments for each ligand. Up to 10 replicates were performed for some ligands.
For the dissociation constants obtained, we also calculated the free energy associated with the dissociation of the complex ΔGdiss according to the equation: ΔGdiss=−RTlnKd.

hNudt16 EE-KK = biological target: T3, hNudt16 EE-KK (Homo sapiens, UniProt Q96DE0, E79K/E80K); assay: Hydrolytic properties of EE-KK mutant tested by HPLC; assay type: biochemical
T3 construct: 4xHis (four added histidines); made in house; host or cells: E. coli Rosetta 2 (DE3), pET16b
T3 sequence (Q96DE0 whole entry E79K/E80K): as the sequence (Q96DE0 whole entry) above, with E79K, E80K counted along it
Experimental: as §2

hNudt16 EE-QQ = biological target: T4, hNudt16 EE-QQ (Homo sapiens, UniProt Q96DE0, E79Q/E80Q); assay: Hydrolytic properties of EE-QQ mutant tested by HPLC; assay type: biochemical
T4 construct: 4xHis (four added histidines); made in house; host or cells: E. coli Rosetta 2 (DE3), pET16b
T4 sequence (Q96DE0 whole entry E79Q/E80Q): as the sequence (Q96DE0 whole entry) above, with E79Q, E80Q counted along it
Experimental: as §2

hNudt16 [5] = biological target: T5, hNudt16 (Homo sapiens, UniProt Q96DE0); assay: Enzymatic hydrolysis catalyzed by hNudt16, products quantified by HPLC; assay type: biochemical; design: 4xHis (four added histidines); made in house; conditions: 20 µM substrate, 37 °C; for Hydrolysis Products / Hydrolysis Rate, v/[E]0 (hydrolyzed substrate per minute per [enzyme] µM) / Hydrolysis Rate, v/µg (hydrolyzed substrate per minute per enzyme µg): pH 7.9, 6 mM MgCl2, nd = hydrolysis products not detected
T5 sequence (Q96DE0 whole entry): as the sequence (Q96DE0 whole entry) above
Experimental: Enzymatic hydrolysis catalyzed by hNudt16 was performed at 37 °C in 40 mM Tris buffer (pH 7.9) containing 100 mM NaCl, 6 mM MgCl2, and 2 mM DTT. The concentration of the investigated dinucleotides and mononucleotides was 20 µM in the reaction mixture.
as §2

hNudt16 [6] = biological target: T5, hNudt16; conditions: cited from earlier work
[7] = second, weaker binding site, read-out: Kd2
[8] = stronger binding site, 50 nM dye-labeled protein, read-out: Kd1

Compound | Tm, wild-type hNudt16, nanoDSF (wild-type hNudt16) [°C] | ΔTm, wild-type hNudt16, nanoDSF (wild-type hNudt16) [°C] | Tm, DSF (with SYPRO Orange) (hNudt16E76Q [1]) [°C] | ∆Tm, DSF (with SYPRO Orange) (hNudt16E76Q [1]) [°C] | Tm, nanoDSF (Dye-Free) (hNudt16E76Q [2]) [°C] | ∆Tm, nanoDSF (Dye-Free) (hNudt16E76Q [2]) [°C] | Hydrolytic activity of E76Q mutant (hNudt16E76Q [3]) | ΔGdiss1 (for Kd1) (hNudt16E76Q [4]) [kcal/mol] | ΔGdiss2 (for Kd2) (hNudt16E76Q [4]) [kcal/mol] | Kd (hNudt16E76Q [4]; [7]) [nM] | Kd (hNudt16E76Q [4]; [8]) [nM] | Hydrolytic activity of EE-KK mutant (hNudt16 EE-KK) | Hydrolytic activity of EE-QQ mutant (hNudt16 EE-QQ) | ΔTm relative to the apo form, both DSF and nanoDSF (hNudt16E76Q [2]; 0.5 mM ligand, stated for both types of measurements) | Hydrolysis Products (hNudt16 [5]) | Hydrolysis Rate, v/[E]0 (hydrolyzed substrate per minute per [enzyme] µM) (hNudt16 [5]) | Hydrolysis Rate, v/µg (hydrolyzed substrate per minute per enzyme µg) (hNudt16 [5]) [µM/min/µg] | Km (hNudt16 [6]) [µM] | Susceptibility to hydrolysis by hNudt16 (in words) (hNudt16 [5]; HPLC)
Nc1nc2c(ncn2[C@@H]2O[C@H](COP(=O)(O)O)[C@@H](O)[C@H]2O)c(=O)[nH]1 [GMP, Guanosine monophosphate] | 70.8 ± 0.1 | 3.5 ± 0.1 | 68.0 ± 0.1 | 4.3 ± 0.1 | 69.1 ± 0.1 | 4.0 ± 0.1 | – | – | – | – | – | – | – | – | – | – | – | – | –
Nc1nc2c(ncn2[C@@H]2O[C@H](COP(=O)(O)OP(=O)(O)OC[C@H]3O[C@@H](n4cnc5c(=O)[nH]c(N)nc54)[C@H](O)[C@@H]3O)[C@@H](O)[C@H]2O)c(=O)[nH]1 [GppG] | – | – | 81.2 ± 0.1 | 17.5 ± 0.1 | 83.1 ± 0.1 | 18.0 ± 0.1 | none of the mutants exhibited hydrolytic activity | 9.708 | 7.89 | 1600 ± 400 | 73 ± 23 | none of the mutants exhibited hydrolytic activity | none of the mutants exhibited hydrolytic activity | 17.5–18.0 °C | GMP | 5454.5 ± 436.3 µM/min/[E]0 | 227.27 ± 18.25 | – | –
C[n+]1cn([C@@H]2O[C@H](COP(=O)([O-])OP(=O)(O)OC[C@H]3O[C@@H](n4cnc5c(=O)[nH]c(N)nc54)[C@H](O)[C@@H]3O)[C@@H](O)[C@H]2O)c2nc(N)[nH]c(=O)c21 [m^7GppG] | – | – | 78.2 ± 0.1 | 14.4 ± 0.1 | 80.2 ± 0.1 | 15.2 ± 0.1 | none of the mutants exhibited hydrolytic activity | 9.063 | 6.154 | 30200 ± 2500 | 220 ± 87 | – | – | – | m^7GMP + GMP | 722.6 ± 68.6 µM/min/[E]0 | 30.11 ± 2.81 | – | –
Adenosine diphosphate ribose [ADPr] | 68.1 ± 0.1 | 0.9 ± 0.1 | 63.6 ± 0.1 | −0.1 ± 0.1 | 66.0 ± 0.1 | 0.9 ± 0.1 | – | – | ≤2.32 | – | – | – | – | – | – | – | – | ~1000 | resistant to hydrolytic cleavage
